Where a SMILES comes first, the peptide text is derived from it. Where no end group is shown, it is not given here. [ ]: non-standard residue; d: D form.
Experiments:
ZR-75-1 cells = assay: Cell cycle distribution, apoptosis and necrosis by flow cytometry, ZR-75-1; format: cell-based, human; conditions: 5 μM; for induction of necrosis: detectable at 72 h, more prominent at 96 h
Procedure: FIGS. 3A-D. MUC1/CQC peptide induces S phase arrest and necrosis. ZR-75-1 (FIGS. 3A-B) and MCF-7 (FIGS. 3C-D) cells were treated with 5 μM MUC1/CQC or MUC1/AQA for 3 and 4 d. Cells were fixed and analyzed for cell cycle distribution by flow cytometry (FIGS. 3A and 3C). The percentage of cells in G1, S and G2/M phases is included in the panels. Cells were also stained with propidium iodide and analyzed by flow cytometry for necrosis (FIGS. 3B and 3D). The percentage of necrotic cells is included in the panels.
Cells were harvested, washed with PBS, fixed with 80% ethanol, and incubated in PBS containing 40 μg/ml RNAse and 40 μg/ml propidium iodide for 30 min at 37° C. Cell cycle distribution was determined by flow cytometry. Sub-G1 DNA content was assessed by staining ethanol-fixed and citrate buffer-permeabilized cells with propidium iodide and monitoring by flow cytometry as described (Yin et al., 2007). For assessment of necrosis, cells were incubated with 1 μg/ml propidium iodide/PBS for 5 min at room temperature and then monitored by flow cytometry as described (Yin et al., 2007).
To determine whether the MUC1/CQC peptide affects growth, ZR-75-1 cells were treated with 5 μM MUC1/CQC for 72 h and monitored for cell cycle distribution. […] These findings indicate that the MUC1/CQC peptide inhibits growth and induces necrosis of human breast cancer cells.

[1] = molecular target: T1, complexes of GFP-MUC1-CD and Flag-MUC1-CD (Homo sapiens, UniProt P15941); assay: Coprecipitation of GFP-MUC1-CD and Flag-MUC1-CD in transfected 293 cells; format: cell-based; conditions: 5 μM peptide for 3 d
T1 construct: expressed in transfected cells; host or cells: 293 cells
T1 sequence (P15941 1184-1255 limits assumed): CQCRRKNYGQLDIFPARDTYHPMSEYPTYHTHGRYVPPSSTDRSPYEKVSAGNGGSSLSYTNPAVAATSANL
Procedure: FIGS. 1A-D. MUC1/CQC peptide blocks MUC1 oligomerization. (FIG. 1A) Schematic representation of the MUC1-C subunit and the 72-amino acid sequence of MUC1-CD (SEQ ID NO: 1) are shown. The N-terminal 15 amino acids (shaded sequence; SEQ ID NO: 3) MUC1/CQC (SEQ ID NO: 63) and mutated MUC1/AQA (SEQ ID NO: 60) peptides were synthesized with the poly-dArg transduction domain. (FIG. 1B) His-MUC1-CD (1.4 mg/ml) was immobilized on a sensor chip in a BIAcore. MUC1/CQC was injected over the chip at 10 μM. Raw binding data were analyzed by BIAevaluation software version 3.0 and fit to a 1:1 Languir binding model. (FIG. 1C) Purified His-MUC1-CD (1.5 mg/ml) was incubated with PBS, 200 μM MUC1/CQC or 200 μM MUC1/AQA for 1 h at room temperature. The proteins were separated in a non-reducing SDS-polyacrylamide gel and analyzed by immunoblotting with anti-MUC1-C. […]
Whole cell and nuclear lysates were prepared as described (Leng et al., 2007). […] Immunoprecitates and soluble proteins were analyzed by immunoblotting with anti-His (Cell Signaling Technology, Danvers, Mass.), anti-GFP (Millipore, Danvers, Mass.), anti-Flag, anti-MUC1-C (Abl; NeoMarkers, Fremont, Calif.), anti-lamin B (EMD, La Jolla, Calif.) or anti-β-actin (Sigma). Reactivity was detected with horseradish peroxidase-conjugated second antibodies and chemiluminescence. […]

Molecule | induction of necrosis (ZR-75-1 cells) | interaction between Flag-MUC1-CD and GFP-MUC1-CD [1] | sub-G1 DNA content (apoptosis) (ZR-75-1 cells) | cell cycle distribution (ZR-75-1 cells; 72 h) | S phase population (ZR-75-1 cells; 96 h)
MUC1/AQA: control peptide in which the CQC motif was altered to AQA, with poly-dArg transduction domain; SEQ ID NO: 60 ([dR][dR][dR][dR][dR][dR][dR][dR][dR]AQARRKNYGQLDIFP) [reference compound] | not | no apparent effect | – | – | –
CC[C@H](C)[C@H](NC(=O)[C@H](CC(=O)O)NC(=O)[C@H](CC(C)C)NC(=O)[C@H](CCC(N)=O)NC(=O)CNC(=O)[C@H](Cc1ccc(O)cc1)NC(=O)[C@H](CC(N)=O)NC(=O)[C@H](CCCCN)NC(=O)[C@H](CCCNC(=N)N)NC(=O)[C@H](CCCNC(=N)N)NC(=O)[C@H](CS)NC(=O)[C@H](CCC(N)=O)NC(=O)[C@H](CS)NC(=O)[C@@H](CCCNC(=N)N)NC(=O)[C@@H](CCCNC(=N)N)NC(=O)[C@@H](CCCNC(=N)N)NC(=O)[C@@H](CCCNC(=N)N)NC(=O)[C@@H](CCCNC(=N)N)NC(=O)[C@@H](CCCNC(=N)N)NC(=O)[C@@H](CCCNC(=N)N)NC(=O)[C@@H](CCCNC(=N)N)NC(=O)[C@H](N)CCCNC(=N)N)C(=O)N[C@@H](Cc1ccccc1)C(=O)N1CCC[C@H]1C(=O)O [MUC1/CQC] (H-[dR][dR][dR][dR][dR][dR][dR][dR][dR]CQCRRKNYGQLDIFP-OH; N-terminus and C-terminus assumed) | induction of necrosis | disruption of the interaction | little if any accumulation of cells with sub-G1 DNA content | substantial arrest in S phase | S phase population was decreased
